The source of these data is US20080103089A1, “Compounds, Compositions, Formulations and Process for Preparation Thereof and Method of Treatment and Management of Acidity and Related Disorders” (priority 2004, published 2008).

Common to all, as to assay type: physicochemical
Data set [1] in a line: Titration of Glutamic acid in water with NaOH. The source says: About one milliequivalent of NaOH was neutralized per milliequivalent of Glutamic acid in water to raise the pH of its aqueous solution from 2.9 to about 5.
A short description of data set [2]: Titration of Sodium Glutamate solution. The source says:
Crystalline Sodium Glutamate gave solution of pH 6.7. It took, per milliequivalent of Sodium Glutamate used, little less than 1 milliequivalent of HCl to bring the pH from 6.7 down to 3 and about 1 milliequivalent of […] the pH from 6.7 to 10.8. Here, the crystalline Sodium Glutamate solution of pH 6.7 represents an intermediate form of alkaline protein.

Data set [3] can be described thus: Determination of Acid Neutralization Capacity (ANC) by titration against 1N HCl. Here is the method:
About 20 ml of 1N NaOH was added to about or less than 1 gram dry weight of the active ingredient (Protein isolate or protein rich extract) with about 10 ml water content. In cold treatment, the mixture was kept at room temperature overnight until the sedimented coagulum was seen to have been dispersed evenly in a solution. In a hot treatment, the mixture was kept in an oven at 80 degrees Celsius, volume restored to 30 ml by addition of distilled water and titrated after various stages of degradation after the period of treatment. Alkali remaining in excess was either neutralized by titrating against 1N HCl until pH dropped to 10.8 or by dialyzing the mixture using gelatin membrane against 700 milliliter portions of distilled water three to four times until the dialysate contained little alkalinity.
Acid Neutralization Capacity was noted as milliequivalents of HCl neutralized to maintain the pH at 3 for two hours and expressed as per gram dry weight of the active antacid ingredient or per dose of the antacid composition containing the active ingredient. Total volume of the reactants were adjusted to 30 ml or 40 ml and titrated against 1N HCl and pH was noted after each small dropwise addition. The pH was measured by a pH meter.
In titration of distilled water, it was observed that pH of the water raised rapidly to 10.8 with addition of a single drop. Similarly, while titrating 1N NaOH against 1N HCl, fall in pH from 12.2 to 10.8 was gradual. However, thereafter, just one drop was sufficient to lower the pH to neutral. Thus, it was clear that acid neutralized by the products within the pH range of 3 to 10.8 was due to Acid Neutralization Capacity when solutions of antacid active ingredients covered in the examples were titrated for determination of their ANC.
When alkali treated mixtures were titrated, acid required to bring down the pH to 10.8 was considered as acid required to neutralize the unreacted NaOH. Acid required to neutralize pH from 10.8 up to pH 3 was taken for calculation of ANC.
Whenever desired, the alkali treated mixture was dialysed through gelatin membrane against about 700 milliliters of distilled water each time three to four times. Significant quantity of alkalinity appeared in first two dialyses in first two hours. Third dialysis, usually done for several hours overnight usually contained very little of alkalinity in the range of pH 10.8 and above.

As to `N[C@@H](CCC(=O)O)C(=O)O` [Glutamic acid], the NaOH consumed entry in data set [1] (from pH 5 to 10.9) is on record as “about 1.2 milliequivalents per milliequi”. Also, the “pH of aqueous solution” value in data set [1] (in water, before titration) is given as 2.9. For the same compound, the NaOH neutralized result in data set [1] (to raise pH from 2.9 to about 5) is “About one”.
Turning to `N[C@@H](CCC(=O)[O-])C(=O)[O-].[Na+].[Na+]` [Sodium Glutamate], the pH of solution in data set [2] (crystalline Sodium Glutamate in solution) is 6.7. Moreover, the “HCl to bring the pH down” value in data set [2] (pH from 6.7 down to 3) is reported as “less than 1 milliequivalent per milliequiv”. The “HCl to raise the pH” value in data set [2] (pH from 6.7 to 10.8) is listed as “about 1 milliequivalent per milliequiv”.
For the compound Casein, the ANC in data set [3] (after cold alkali treatment (1N NaOH, room temperature overnight), pH 10.8 to 3) is on record as 1.5 milliequivalents of HCl per gr; in data set [3] (after hot alkali treatment (80 degrees Celsius) of 2 days), 4.88 milliequivalents of HCl per gr; in data set [3] (after hot alkali treatment (80 degrees Celsius) of 6 days), 8 milliequivalents of HCl per gr; in data set [3] (untreated protein isolate, HCl neutralized to maintain pH 3 for two hours) it was 0.12 per gram.
